For one test, the target named is TBK1 (Homo sapiens (Human), UniProt Q9UHD2). Put plainly: TBK1 TR-FRET enzymatic assay. To be noted: read-out: TBK1 IC50, 2x Km ATP, geometric mean of at least four determinations.
The target in a further test is hJAK2 (Homo sapiens (Human), UniProt O60674). Put plainly: hJAK2 LANCE TR-FRET enzymatic assay. It is filed as biochemical. The following applies: read-out: JAK2 IC50.
The target of another test is IKKε (Homo sapiens (Human), UniProt Q14164). Put plainly: IKKε TR-FRET enzymatic assay. The test is classed as biochemical. To be noted: 2x Km ATP, geometric mean of at least four determinations, read-out: IKKe IC50.

The values that follow come from patent US10253019B2, “Tank-binding kinase inhibitor compounds” (Gilead Sciences, Inc., priority 2014, dated 2019).

Sequence of TBK1 (Q9UHD2 whole entry): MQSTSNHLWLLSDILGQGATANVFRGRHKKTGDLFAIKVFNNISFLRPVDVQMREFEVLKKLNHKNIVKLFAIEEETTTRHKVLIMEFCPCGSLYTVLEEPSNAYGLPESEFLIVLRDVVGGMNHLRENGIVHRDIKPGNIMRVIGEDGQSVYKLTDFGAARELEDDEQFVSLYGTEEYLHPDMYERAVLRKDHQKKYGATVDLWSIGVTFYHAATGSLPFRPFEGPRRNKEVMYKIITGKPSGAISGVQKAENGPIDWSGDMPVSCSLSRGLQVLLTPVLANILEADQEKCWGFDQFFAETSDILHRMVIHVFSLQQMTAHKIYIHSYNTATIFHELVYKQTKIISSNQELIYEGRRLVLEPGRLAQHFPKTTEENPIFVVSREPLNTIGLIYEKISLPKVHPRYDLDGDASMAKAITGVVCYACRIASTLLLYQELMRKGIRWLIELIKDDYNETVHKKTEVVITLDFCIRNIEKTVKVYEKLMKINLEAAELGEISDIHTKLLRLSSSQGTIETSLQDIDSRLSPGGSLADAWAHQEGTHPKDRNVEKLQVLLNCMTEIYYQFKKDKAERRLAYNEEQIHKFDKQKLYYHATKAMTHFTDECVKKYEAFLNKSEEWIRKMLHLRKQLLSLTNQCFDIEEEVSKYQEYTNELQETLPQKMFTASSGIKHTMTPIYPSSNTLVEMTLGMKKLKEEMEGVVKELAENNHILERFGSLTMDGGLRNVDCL
Sequence of IKKε (Q14164 whole entry): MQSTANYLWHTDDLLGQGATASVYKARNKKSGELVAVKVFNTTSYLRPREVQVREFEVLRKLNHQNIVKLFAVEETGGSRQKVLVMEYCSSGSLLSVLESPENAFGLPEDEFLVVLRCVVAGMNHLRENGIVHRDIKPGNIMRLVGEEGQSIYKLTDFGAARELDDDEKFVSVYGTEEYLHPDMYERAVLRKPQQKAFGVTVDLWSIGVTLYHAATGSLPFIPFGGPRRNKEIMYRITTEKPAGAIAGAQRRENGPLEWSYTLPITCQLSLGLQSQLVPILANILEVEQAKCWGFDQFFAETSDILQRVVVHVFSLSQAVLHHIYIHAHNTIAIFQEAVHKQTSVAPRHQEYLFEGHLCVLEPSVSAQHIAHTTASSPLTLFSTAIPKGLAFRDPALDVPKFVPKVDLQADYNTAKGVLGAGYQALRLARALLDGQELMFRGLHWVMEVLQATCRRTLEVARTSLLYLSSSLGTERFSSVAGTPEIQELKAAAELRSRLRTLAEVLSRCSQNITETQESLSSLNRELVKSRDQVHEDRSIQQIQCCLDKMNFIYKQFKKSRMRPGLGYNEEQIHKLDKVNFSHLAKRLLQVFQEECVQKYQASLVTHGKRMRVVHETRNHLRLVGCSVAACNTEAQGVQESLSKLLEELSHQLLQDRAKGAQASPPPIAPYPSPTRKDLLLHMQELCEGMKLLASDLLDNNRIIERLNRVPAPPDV
Sequence of hJAK2 (O60674 whole entry): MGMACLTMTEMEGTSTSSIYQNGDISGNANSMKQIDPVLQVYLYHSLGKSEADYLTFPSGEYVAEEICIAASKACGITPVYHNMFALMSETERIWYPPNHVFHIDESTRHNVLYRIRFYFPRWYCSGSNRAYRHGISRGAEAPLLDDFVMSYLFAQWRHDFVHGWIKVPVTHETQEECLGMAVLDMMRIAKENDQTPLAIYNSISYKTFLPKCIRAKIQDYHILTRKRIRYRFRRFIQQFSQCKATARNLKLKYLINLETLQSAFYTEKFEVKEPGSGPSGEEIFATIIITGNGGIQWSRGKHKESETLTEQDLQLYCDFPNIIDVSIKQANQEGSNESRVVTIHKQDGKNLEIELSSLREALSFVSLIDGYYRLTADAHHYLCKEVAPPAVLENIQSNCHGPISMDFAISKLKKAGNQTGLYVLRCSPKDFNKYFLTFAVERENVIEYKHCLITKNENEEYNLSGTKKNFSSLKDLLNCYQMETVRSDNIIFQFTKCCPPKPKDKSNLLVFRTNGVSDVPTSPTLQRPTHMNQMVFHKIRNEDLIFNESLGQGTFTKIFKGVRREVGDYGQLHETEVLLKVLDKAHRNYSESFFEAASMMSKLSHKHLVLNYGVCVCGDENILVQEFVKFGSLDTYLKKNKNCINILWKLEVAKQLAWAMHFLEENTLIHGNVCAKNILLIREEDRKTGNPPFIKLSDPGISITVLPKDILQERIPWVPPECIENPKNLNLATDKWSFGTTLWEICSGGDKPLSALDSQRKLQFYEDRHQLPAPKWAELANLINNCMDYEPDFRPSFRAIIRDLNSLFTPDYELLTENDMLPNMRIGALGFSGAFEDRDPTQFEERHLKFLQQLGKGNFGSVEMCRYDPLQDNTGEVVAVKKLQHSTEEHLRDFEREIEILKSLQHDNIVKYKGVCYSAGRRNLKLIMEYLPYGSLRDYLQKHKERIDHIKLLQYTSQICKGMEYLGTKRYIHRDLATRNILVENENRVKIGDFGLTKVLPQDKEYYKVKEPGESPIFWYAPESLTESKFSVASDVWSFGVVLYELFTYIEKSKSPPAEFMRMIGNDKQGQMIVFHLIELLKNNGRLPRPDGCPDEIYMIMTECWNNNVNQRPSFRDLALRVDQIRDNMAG
Experimental for TBK1: Enzymatic activity of IKKε and TBK1 was measured using a homogeneous time resolved fluorescence resonance energy transfer (TR-FRET) assay that monitors enzyme dependent phosphorylation of a biotinylated serine/threonine peptide substrate. […] TBK1 and IKKε were expressed and purified as full length recombinant proteins. Detection reagents for the assay were purchased from Cisbio. […] After an assay reaction time of 240 minutes at 25° C., reactions were terminated with EDTA.
All IC50 values represent geometric mean values of a minimum of four determinations.

Broadly, the IC50 is the concentration needed to halve the response being measured. For “2-(((3R,4S)-1-((R)-4,4-difluoropyrrolidine-2-carbonyl)-3-fluoropiperidin-4-yl)oxy)-5-(4-((4-(4-(oxetan-3-yl)piperazin-1-yl)phenyl)amino)-1,3,5-triazin-2-yl)benzonitrile [Example 132]”, the IC50 at TBK1 stood at 25 nM; at hJAK2 it was 1000 nM; at IKKε, 51 nM.
With “2-(((3R,4S)-3-fluoro-1-((S)-pyrrolidine-2-carbonyl)piperidin-4-yl)oxy)-5-(4-((4-(4-(oxetan-3-yl)piperazin-1-yl)phenyl)amino)-1,3,5-triazin-2-yl)benzonitrile [Example 133]”, the IC50 at hJAK2 and at IKKε was 1000 nM each time.
On to `N#Cc1cc(-c2ncnc(Nc3cnn(C(F)F)c3)n2)ccc1O[C@H]1CCNC[C@H]1F` [Example 453, 5-(4-((1-(difluoromethyl)-1H-pyrazol-4-yl)amino)-1,3,5-triazin-2-yl)-2-(((3R,4S)-3-fluoropiperidin-4-yl)oxy)benzonitrile], for which the IC50 on TBK1 amounted to 359 nM.
